# Measurements published in patent US20250011368A1, “DLL3 TARGETING PEPTIDES AND CONSTRUCTS THEREOF” (MARIANA ONCOLOGY INC., priority 2023, published 2025).
# Numbered stars: 1 amine (or outer) side, 2 acyl side, 3 side chain; on linkers, the order of the positions; unused ones are H or OH. Bridge positions count the residues as written; N and C are the ends. Square brackets hold non-standard residues; d marks the D form. Peptide text beside a SMILES is read from it. * marks the point of attachment. Ala(piperidin-4-yl) = O=C([C@H](CC1CCN([*:3])CC1)N[*:1])[*:2]; DOTA = O=C(O)CN1CCN(CC(=O)O)CCN(CC(=O)*)CCN(CC(=O)O)CC1; 2Nal = N[C@@H](Cc1ccc2ccccc2c1)C(=O)O; 3Pal = N[C@@H](Cc1cccnc1)C(=O)O; 4Pal = N[C@@H](Cc1ccncc1)C(=O)O
# Legend:
# CT26.DLL3 cells [1] = assay: Internalization (out of bound fraction) of [177Lu]Lu-test peptide, CT26.DLL3 cells; format: cell-based; settings: 1 hour at 37° C., glycine pH 2.5 wash
# Procedure: (§1) [^177Lu]LuCl3 was received from venders in HCl solution. For every mCi of [^177Lu]LuCl3 added to the reaction vial (1.5 mL Eppendorf vial), ammonium acetate buffer (0.2 M, pH 4.9, 100 μL, containing 1% w/v ascorbic acid and 6% v/v ethanol) and peptide conjugate (1 nmol). A peptide conjugate of the present disclosure is also referred to herein as a “chelator-peptide”. The pH of the solution was determined to be approximately 5 by using pH strips. The reaction vial was incubated at 80° C., 700 RPM for 17-20 minutes. A sample from the reaction was analyzed by RP-HPLC using an Agilent Infinity II 1260 HPLC to determine reaction completion and radiochemical purity of [^177Lu]Lu-chelator-peptide. HPLC conditions: Waters XBridge BEH C18 Column, 130 Å, 3.5 um, 4.6 mm×250 mm; mobile phase: Solvent A=water (with 0.1% formic acid), solvent B=acetonitrile (with 0.1% formic acid). Gradients: 25-45% B in 10 minutes, 45-65% B in 12 minutes, 65-90% in 6 minutes at a flow rate of 0.5 mL/minute. Required amounts of the product was formulated in 1% PBSA for cell studies.
# (§2) The study was conducted using SHP-77, CT26.WT, and CT26.DLL3 cells (Table 7) Adherent cell studies: The cells were cultured in appropriate culture media (20 mL) in tissue culture treated T150 flasks at 37° C. and 5% CO2. Adherent cells were detached (60-70% confluent) using 5 mL Versene at 37° C. for 3 minutes. After confirming the viability using countess and count of detached cells using Trypan blue, the cells were centrifuged at 4° C. for 5 minutes (1,000 rpm). The cell pellet obtained was washed once with PBS and resuspended in 1% PBSA to obtain the desired cell concentration (5-25 million cells/mL).
# (§3) Cell numbers used for the assay were in the range of 5 million cells/condition −25 million cells/condition.
# (§4) Total uptake: Cells were incubated with 300 μL (0.8 μCi) of the incubation buffer (containing radiolabeled peptide [^177Lu] Lu-test peptide) for 1 hour at 37° C. (Table 8). Post incubation, the cells were pelleted and washed 2 times using cold PBS+1% BSA. The supernatant and washes were combined and counted together as “unbound fraction” in a gamma counter. The cells were then resuspended in 300 μL of 1% PBS+1% BSA and counted in the gamma counter as “bound fraction”.
# Internalization: The resuspended cells in 300 μl of 1% PBSA and counted in the gamma counter as “bound fraction” were collected in 1.5 mL Eppendorf tube and pelleted. The pelleted cells were incubated with 300 μl of 50 mM Glycine pH=2.5 for 3 minutes and then pelleted discarding the supernatant. This process was repeated one more time. The pelleted cells were washed with 300 μl of cold 1% PBSA and then resuspended in 300 μl 0.3M NaOH. This was counted in the gamma counter as “internalized fraction”.
# (§5) In these Tables, “A” represents %≤25; “B” represents 25<%≤50; “C” represents %>50.
# human DLL3 = target: T1, human DLL3 (Homo sapiens, UniProt Q9NYJ7); assay: Affinity determination by Surface Plasmon Resonance (SPR); format: binding; settings: 25° C., biotinylated human DLL3 immobilized on streptavidin sensor chip, 1:1 binding model; read-out: SPR KD
# T1 sequence (Q9NYJ7 27-618): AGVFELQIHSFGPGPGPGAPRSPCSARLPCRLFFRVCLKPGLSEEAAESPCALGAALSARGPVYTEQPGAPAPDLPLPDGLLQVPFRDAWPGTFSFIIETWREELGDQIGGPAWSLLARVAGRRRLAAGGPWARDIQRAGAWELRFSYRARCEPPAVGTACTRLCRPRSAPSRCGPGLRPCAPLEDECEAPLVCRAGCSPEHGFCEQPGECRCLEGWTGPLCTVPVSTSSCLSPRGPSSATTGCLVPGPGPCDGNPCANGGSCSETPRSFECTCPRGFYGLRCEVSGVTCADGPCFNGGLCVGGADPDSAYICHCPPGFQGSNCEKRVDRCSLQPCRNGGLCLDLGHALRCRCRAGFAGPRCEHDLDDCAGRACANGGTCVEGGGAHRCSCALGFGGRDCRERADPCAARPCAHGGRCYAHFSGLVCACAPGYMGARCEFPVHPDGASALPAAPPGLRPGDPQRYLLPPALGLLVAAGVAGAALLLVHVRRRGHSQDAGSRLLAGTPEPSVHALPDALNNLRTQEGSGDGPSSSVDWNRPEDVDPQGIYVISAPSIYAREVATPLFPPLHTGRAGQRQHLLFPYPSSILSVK
# Summary of the method: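 Kinetic and affinity constants were derived by fitting sensorgrams to a 1:1 binding model. Graded compound concentrations flowed at 100 μL/minute in 20 mM phosphate running buffer with 2% DMSO over streptavidin-immobilized biotinylated human DLL3, reference-subtracted.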
# CT26.DLL3 cells [2] = assay: Cell binding (total uptake) of [177Lu]Lu-test peptide, CT26.DLL3 cells; format: cell-based; settings: 1 hour at 37° C.
# Procedure: as §1, §2, §3, §4, §5
# SHP-77 tumors = assay: Ex vivo biodistribution of radiolabeled peptides in nude mice bearing SHP-77 tumors; settings: [177Lu]Lu labelling, nude mice bearing SHP-77 tumors (n = 3), 24 hours post-injection
# Procedure: Mice were intravenously injected (via the lateral tail vein) with a bolus dose of the radiolabeled peptides for ex vivo biodistribution studies when tumor volumes were in range of 200-400 mm^3 for xenograft mice and when age of the mice was 5-7 weeks for tumor naïve mice studies. To assess the amount of radionuclide injected into individual mice the syringe was assayed in a dose calibrator before and after injection for [^177Lu]Lu-peptide.
# Mice were euthanized at pre-determined time points and selected tissues were resected and collected into pre-weighed tubes. The tubes were then reweighed post resection, the difference giving the weight of each tissue. Radioactivity in each tissue was measured using a gamma counter. Counts were decay corrected to the time of injection and percentage of injected activity per gram (% IA/g) was calculated for each tissue based on the injected activity into each individual mouse. Injected activity was converted to counts based on the sensitivity of the gamma counter. The counts in tissue were then converted to the percentage of injected activity and this was divided by the mass of tissue to give % IA/g.
# DLL3 on CT26.DLL3 cells = target: T2, DLL3 on CT26.DLL3 cells (Homo sapiens (Human), UniProt Q9NYJ7 27-618); assay: 177Lu-peptide bound to CT26.DLL3 cells, gamma counting; letter grade, key in paragraph 629
# T2 construct: CT26.DLL3 are engineered cells to express DLL3
# T2 sequence: T1 sequence (Q9NYJ7 27-618)
# Procedure: as §2
# Total uptake: Cells were incubated with 300 μL (0.8 μCi) of the incubation buffer (containing radiolabeled peptide [¹⁷⁷Lu] Lu-test peptide) for 1 hour at 37° C. (Table 8). Post incubation, the cells were pelleted and washed 2 times using cold PBS+1% BSA. The supernatant and washes were combined and counted together as “unbound fraction” in a gamma counter. The cells were then resuspended in 300 μL of 1% PBS+1% BSA and counted in the gamma counter as “bound fraction”.
Molecule,% Internalization (out of bound fraction) (CT26.DLL3 cells [1]),Kd (human DLL3) [nM],% Binding (CT26.DLL3 cells [2]),kidney uptake (% IA/g) (SHP-77 tumors),tumor uptake (% IA/g) (SHP-77 tumors),% Binding (DLL3 on CT26.DLL3 cells) [%]
"CC[C@H](C)[C@H](NC(=O)[C@@H](NC(=O)[C@H](Cc1c[nH]c2ccccc12)NC(C)=O)[C@@H](C)O)C(=O)N[C@H]1CSSC[C@@H](C(=O)N[C@@H](Cc2c[nH]c3ccccc23)C(=O)N2CCC[C@H]2C(=O)N[C@H](CCCCNC(=O)CN2CCN(CC(=O)O)CCN(CC(=O)O)CCN(CC(=O)O)CC2)C(N)=O)NC(=O)[C@H](CC(=O)O)NC(=O)[C@H](Cc2cnc[nH]2)NC(=O)[C@H](Cc2ccc3ccccc3c2)NC(=O)[C@H](Cc2ccncc2)NC(=O)[C@H](CC(N)=O)NC1=O [compound 266, Ac-W-T-I-C(3)-N-(4Pya)-(2Nal)-H-D-C(3)-W-P-[D-Lys(DOTA)]-NH2] (Ac-WTICN[4Pal][2Nal]HDCWP[dK](DOTA)-NH2; disulfide 4-10)",A (%≤25),< 1,A (%≤25),C (0 < % IA/g ≤ 10 in kidney),A (0 < % IA/g ≤ 5 in tumor),–
"CC[C@H](C)[C@H](NC(=O)[C@@H](NC(=O)[C@H](Cc1c[nH]c2ccccc12)NC(C)=O)[C@@H](C)O)C(=O)N[C@H]1CSSC[C@@H](C(=O)N[C@@H](Cc2c[nH]c3ccccc23)C(=O)N2CCC[C@H]2C(=O)N[C@H](CCCCNC(=O)CN2CCN(CC(=O)O)CCN(CC(=O)O)CCN(CC(=O)O)CC2)C(N)=O)NC(=O)[C@H](CC(=O)O)NC(=O)[C@H](Cc2cnc[nH]2)NC(=O)[C@H](Cc2ccc3ccccc3c2)NC(=O)[C@H](CC2CCNCC2)NC(=O)[C@H](CC(N)=O)NC1=O [compound 267, Ac-W-T-I-C(3)-N-[3-(4-piperidinyl)-Ala]-(2Nal)-H-D-C(3)-W-P-[D-Lys(DOTA)]-NH2] (Ac-WTICN[Ala(piperidin-4-yl)][2Nal]HDCWP[dK](DOTA)-NH2; disulfide 4-10)",B (25<%≤50),< 1,A (%≤25),C (0 < % IA/g ≤ 10 in kidney),A (0 < % IA/g ≤ 5 in tumor),–
Ac-(5Fluoro-W)-T-(CHA)-C(3)-N-N-(2Nal)-H-D-C(3)-(7Aza-W)-(trans4Fluoro-P)-[D-Lys(DOTA)]-NH2 [compound 245],B (25<%≤50),< 1,A (%≤25),D (% IA/g > 10 in kidney),A (0 < % IA/g ≤ 5 in tumor),–
"Ac-WTIC[3Pal]N[2Nal]HDCWP[dK](DOTA)-NH2 (disulfide 4-10; also: 177Lu in the DOTA chelator, also called [177Lu]Lu-test peptide) [[177Lu]Lu-labelled Cpd No. 263]",–,–,–,–,–,≤ 25
